The values that follow come from patent publication US11174262B2, “Compounds, compositions and methods” (Denali Therapeutics Inc., priority 2017, dated 2021).

The target of this test is GST-hRIPK1 (8-327) (Homo sapiens (Human), UniProt Q13546). Description: Fluorescent Polarization Binding (FP Binding) assay, RIPK1. The conditions noted are these: 10 nM GST-hRIPK1 (8-327), 5 nM fluorescent-labeled ligand, RT, 30 min, mean of minimum two experiments. How it is done: Fluorescent Polarization Binding (FP Binding) assay (Berger S. B. et al. (2015) Cell Death Discovery, 1: 15009; Maki J. L. et al. (2012) Anal Biochem., 427 (2): 164-174) was performed in polystyrene low volume 384-well black plate, at Room Temperature (RT) in a final volume of 10.1 μL/well using 10 nM of GST-hRIPK1 (8-327) enzyme and 5 nM of fluorescent-labeled ligand (14-(2-{[3-({2-{[4-(cyanomethyl)phenyl]amino}-6-[(5-cyclopropyl-1H-pyrazol-3-yl)amino]-4-pyrimidinyl}amino) propyl]amino}-2-oxoethyl)-16,16,18,18-tetramethyl-6,7,7a,8a,9,10,16,18-octahydrobenzo [2″,3″]indolizino[8″,7″:5′,6′]pyrano [3′,2′:3,4]pyrido[1,2-a]indol-5-ium-2-sulfonate.
Chain of GST-hRIPK1 (8-327) (Q13546 8-327): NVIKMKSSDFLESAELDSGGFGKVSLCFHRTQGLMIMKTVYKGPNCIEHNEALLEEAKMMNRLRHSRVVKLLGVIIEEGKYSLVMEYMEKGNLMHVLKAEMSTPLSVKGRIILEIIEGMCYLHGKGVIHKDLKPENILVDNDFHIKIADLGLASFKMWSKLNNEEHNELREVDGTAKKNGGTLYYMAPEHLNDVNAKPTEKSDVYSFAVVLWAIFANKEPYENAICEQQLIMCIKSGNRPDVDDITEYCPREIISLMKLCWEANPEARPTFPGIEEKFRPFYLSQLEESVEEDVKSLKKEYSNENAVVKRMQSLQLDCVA
Test compounds were serially diluted in DMSO at 100 fold final concentrations in the assay (1% DMSO final). In each well of a 384-well Plate were dispensed 0.1 μL of compound solution (or DMSO for controls) followed by 5 μL of GST-hRIPK1 (8-327) at twice the final concentrations in assay buffer (50 mM HEPES pH 7.5, 10 mM NaCl, 50 mM MgCl2, 0.02% CHAPS, 0.5 mM DTT and 0.01% Pluronic F127). For negative control the enzyme addition was replaced by assay buffer only.
After addition of 5 μL of fluorescent-labeled ligand at twice the final concentrations in assay buffer, the plate was incubated at RT for […]. At the end, the binding was measured as FP value with the Envision (PerkinElmer) plate reader using filter for an excitation λ=531 nm FP and an emission λ=595 nm FP (S & P-pol).
Test compound inhibition was expressed as percent inhibition of internal assay controls. For concentration response curves, normalized data is fit and IC50 determined using XL-fit (IDBS) for Excel. IC50 were averaged to determine a mean value, for a minimum of two independent experiments.
Receptor interacting protein kinase 1 activity of exemplary compounds was determined according to the above general procedures.

Structures are written as SMILES. A value given as a limit tells only on which side of the number the result lay.

One may read the IC50 as the concentration needed to halve the response being measured. `CC1(C(F)F)CCCN2CCC(c3cncc(C#N)c3)N2C1=O` (single isomer, unassigned) [Example 15, 5-[6-(difluoromethyl)-6-methyl-5-oxo-1,2,3,7,8,9-hexahydropyrazolo[1,2-a]diazepin-3-yl]pyridine-3-carbonitrile] gave an IC50 below 1000 nM.
Consider `CC1(C)CCCN2CCC(c3cc(F)cc(F)c3)N2C1=O` (single isomer, unassigned) [Example 3, 3-(3,5-difluorophenyl)-6,6-dimethyl-1,2,3,7,8,9-hexahydropyrazolo[1,2-a]diazepin-5-one], for which the IC50 was below 1000 nM.
The same measure for `CCC1(C(F)F)CCCN2CCC(c3cnc(C)cn3)N2C1=O` (racemic) [Example 18, 6-(difluoromethyl)-6-ethyl-3-(5-methylpyrazin-2-yl)-1,2,3,7,8,9-hexahydropyrazolo[1,2-a]diazepin-5-one]: below 1000 nM; for `CC1(C)CCCN2CCC(c3cccc(F)c3)N2C1=O` (single isomer, unassigned) [Example 5, 3-(3-fluorophenyl)-6,6-dimethyl-1,2,3,7,8,9-hexahydropyrazolo[1,2-a]diazepin-5-one]: below 1000 nM; for `CC1(C(F)F)CCCN2CCC(c3cncc(F)c3)N2C1=O` (single isomer, unassigned) [Example 10, 6-(difluoromethyl)-3-(5-fluoro-3-pyridyl)-6-methyl-1,2,3,7,8,9-hexahydropyrazolo[1,2-a]diazepin-5-one]: below 1000 nM.
`CC1(C)CCCN2CCC(c3ccc(F)c(F)c3)N2C1=O` (single isomer, unassigned) [Example 4, 3-(3,4-difluorophenyl)-6,6-dimethyl-1,2,3,7,8,9-hexahydropyrazolo[1,2-a]diazepin-5-one] gave an IC50 below 1000 nM.
The result for `CC1(C)CCCN2CCC(c3cncc(C#N)c3)N2C1=O` (racemic) [Example 9, 5-(6,6-dimethyl-5-oxo-1,2,3,7,8,9-hexahydropyrazolo[1,2-a]diazepin-3-yl)pyridine-3-carbonitrile] reads below 1000 nM; that for `CCC1(C)COC[C@H]2CC[C@@H](c3cccc(F)c3)N2C1=O` (stereo partly drawn) [Example 8, (7S,9aR)-4-ethyl-7-(3-fluorophenyl)-4-methyl-1,3,7,8,9,9a-hexahydropyrrolo[2,1-c][1,4]oxazepin-5-one], 1000 to 30000 nM.
The result for `Cc1cnc(C2CCN3CCCC(C)(C(F)F)C(=O)N23)cn1` (single isomer, unassigned) [Example 13, 6-(difluoromethyl)-6-methyl-3-(5-methylpyrazin-2-yl)-1,2,3,7,8,9-hexahydropyrazolo[1,2-a]diazepin-5-one] reads below 1000 nM; that for `Cc1cnc(C2CCN3CCCC(C)(C)C(=O)N23)cn1` (single isomer, unassigned) [Example 2, 6,6-dimethyl-3-(5-methylpyrazin-2-yl)-1,2,3,7,8,9-hexahydropyrazolo[1,2-a]diazepin-5-one], below 1000 nM.
The same measure for `CC1(C)CCCN2CCC(c3cncc(F)c3)N2C1=O` (racemic) [Example 1, 3-(5-fluoro-3-pyridyl)-6,6-dimethyl-1,2,3,7,8,9-hexahydropyrazolo[1,2-a]diazepin-5-one]: below 1000 nM; for `CC1(C)CCCN2CCC(c3cc(F)cc(C#N)c3)N2C1=O` (stereo not drawn) [Example 6, 3-(6,6-dimethyl-5-oxo-1,2,3,7,8,9-hexahydropyrazolo[1,2-a]diazepin-3-yl)-5-fluoro-benzonitrile]: below 1000 nM; for `CC1(C(F)F)CCCN2CCC(c3cncc(F)c3)N2C1=O` (racemic) [Example 11, 6-(difluoromethyl)-3-(5-fluoro-3-pyridyl)-6-methyl-1,2,3,7,8,9-hexahydropyrazolo[1,2-a]diazepin-5-one]: below 1000 nM.
Compound `CC1(C)CCCN2CCC(c3ccc(C#N)cc3)N2C1=O` (stereo not drawn) [Example 7, 4-(6,6-dimethyl-5-oxo-1,2,3,7,8,9-hexahydropyrazolo[1,2-a]diazepin-3-yl)benzonitrile] displayed an IC50 below 1000 nM.
The compound `CC1(C(F)F)CCCN2CCC(c3cncc(C#N)c3)N2C1=O` (single isomer, unassigned) [Example 14, 5-[6-(difluoromethyl)-6-methyl-5-oxo-1,2,3,7,8,9-hexahydropyrazolo[1,2-a]diazepin-3-yl]pyridine-3-carbonitrile] came in with an IC50 below 1000 nM.
The result for `Cc1cnc(C2CCN3CCCC(C)(C(F)F)C(=O)N23)cn1` (single isomer, unassigned) [Example 12, 6-(difluoromethyl)-6-methyl-3-(5-methylpyrazin-2-yl)-1,2,3,7,8,9-hexahydropyrazolo[1,2-a]diazepin-5-one] reads below 1000 nM; that for `CCC1(C(F)F)CCCN2CCC(c3cnc(C)cn3)N2C1=O` (single isomer, unassigned) [Example 17, 6-(difluoromethyl)-6-ethyl-3-(5-methylpyrazin-2-yl)-1,2,3,7,8,9-hexahydropyrazolo[1,2-a]diazepin-5-one], below 1000 nM; that for `O=C1N2C(c3cncc(F)c3)CCN2CCCC12CC2` (racemic) [Example 16, 3-(5-fluoro-3-pyridyl)spiro[1,2,3,7,8,9-hexahydropyrazolo[1,2-a]diazepine-6,1′-cyclopropane]-5-one], 1000 to 30000 nM.
